Laboratory results published in patent US5374641A, “N-(3-pyridylalkyl)sulfonamide compounds which have useful pharmaceutical activity” (Terumo Kabushiki Kaisha, priority 1991, dated 1994).

Key:
[1] = system: platelet aggregation caused by U-46619; experiment: Test Examples 6: Platelet aggregation inhibiting activity (human PRP, U-46619); assay type: cell-based; details: for IC50: Platelet, 320 nM U-46619, 37° C., read-out: Inhibitory effect against platelet aggregation caused by U-46619 (IC50); for platelet aggregation inhibiting activity (in words): U-46619
Procedure: A blood sample was collected from human fore arm using a syringe containing 3.8% sodium citrate solution (1/10 volume of the blood to be collected) and centrifuged to obtain platelet rich plasma (PRP; 3×10^5 platelets/μl).
(§1) Platelet aggregation was measured using an aggregometer (Hematracer VI, Niko Bioscience Co., Ltd.) by putting 200 μof the thus prepared PRP and 23.75 μl of physiological saline in a cuvette, setting the cuvette into the aggregometer and incubating the contents at 37° C. for 2 minutes, adding 1.25 μl dimethyl sulfoxide (DMSO) solution of each of the N-(3-pyridylalkyl)sulfonamide derivatives obtained in Examples 35, 36, 37 and 42 and incubating for 3 minutes, and then adding U-46619 (Cayman Chemical Co., Inc.) which is a stable PGG2 /H2 derivative having a strong platelet aggregation causing activity.
In this instance, the term "IC50 " as used herein means concentration of the N-(3-pyridylalkyl)sulfonamide derivative of the present invention required to inhibit 50% of the platelet aggregation when platelet aggregation without introducing the inventive derivative was defined as 100%.

[2] = system: platelet aggregation, induced by U-46619; experiment: Test Examples 4: Platelet aggregation inhibiting activity (guinea pig PRP, U-46619); assay type: cell-based; details: Cavia porcellus, 320 nM U-46619, 37° C., read-out: Platelet aggregation activity IC50 (concentration of 50% inhibition of platelet aggregation, induced by U-46619)
Procedure: A blood sample was taken from carotid artery of a guinea pig using a syringe containing 3.8% sodium citrate solution (1/10 volume of the blood to be collected). The blood was centrifuged to obtain platelet riched plasma (PRP: number of platelets, 3×10^5 /μ1).
Two hundred microliters of the PRP and 23.75 µl of physiological saline were placed in a cuvette, which was then set in an aggregometer, followed by heating at 37° C. for two minutes, and then followed by addition of 1.25 µl of the solution of an N-(3-pyridylalkyl)sulfonamide derivative of the present invention in ethanol, for 3-min incubation. Then, U-46619, one of stable PGG2 /H2 derivatives, having strong action inducing platelet aggregation, was added, so that platelet aggregation was measured by an aggregometer [Hematracer VI: manufactured by NIKO Bioscience, K.K.].

thromboxane synthetase [3] = biological target: T1, thromboxane synthetase (Homo sapiens, UniProt P24557); experiment: Test Example 5: Thromboxane synthetase inhibiting activity (human platelet microsomal fraction, RIA); assay type: biochemical; details: PGH2, room temperature, 60 seconds, read-out: Inhibition of thromboxane synthetase IC50
T1 sequence (P24557 1-533): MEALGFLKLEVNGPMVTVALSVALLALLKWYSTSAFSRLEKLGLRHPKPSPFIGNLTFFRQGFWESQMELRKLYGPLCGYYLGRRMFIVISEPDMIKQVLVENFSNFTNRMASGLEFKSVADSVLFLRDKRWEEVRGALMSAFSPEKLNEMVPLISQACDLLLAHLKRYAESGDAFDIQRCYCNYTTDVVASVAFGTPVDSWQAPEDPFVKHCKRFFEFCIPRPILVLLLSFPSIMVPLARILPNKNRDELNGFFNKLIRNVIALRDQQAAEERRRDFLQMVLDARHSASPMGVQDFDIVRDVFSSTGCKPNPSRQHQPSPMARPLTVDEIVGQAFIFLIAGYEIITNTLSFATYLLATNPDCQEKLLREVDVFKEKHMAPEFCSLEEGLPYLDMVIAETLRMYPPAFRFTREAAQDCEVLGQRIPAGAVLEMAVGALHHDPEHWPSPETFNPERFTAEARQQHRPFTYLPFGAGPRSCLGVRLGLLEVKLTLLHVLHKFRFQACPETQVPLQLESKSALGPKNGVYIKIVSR
Procedure: Arachidonic acid (10 nM) was added to 250 μg of microsome of sheep seminal vesicle gland, commercially available from Hilran Biochemical, Co. Ltd., Israel, Lot SM36, which was then reacted at room temperature for 90 seconds to prepare PGH2.
Commercially available human platelet microsomal fraction (200 μg) as a source for thromboxane synthetase was mixed with the PGH2 solution prepared in the same manner as for samples, and reacted together at room temperature for 60 seconds. Diethyl ether/methanol/0.2M citric acid (30:4:1) was added to extract thromboxane A2 generated and its quantity was then analyzed by RIA using a kit manufactured by NEN, Co. LTd.

thromboxane synthetase [4] = biological target: T1, thromboxane synthetase; experiment: Test Example 2: Thromboxane synthetase inhibiting activity (human PRP, thrombin, RIA); assay type: cell-based; details: for IC50: 20 U/ml thrombin, RIA, read-out: Inhibition of thromboxane A2 synthesis (IC50); for thromboxane synthetase inhibiting activity (in words): thrombin
Procedure: (§2) A blood sample was collected from human fore arm using a syringe containing 3.8% sodium citrate solution (1/10 volume of the blood to be collected) and centrifuged to obtain platelet rich plasma (PRP; 3 ×10^5 platelets/μ1).
(§3) A 200 μ1 portion of the thus prepared PRP and 23.75 µl of physiological saline were put in a cuvette, the cuvette was set into the aforementioned aggregometer and the contents in the cuvette were incubated at 37° C. for 2 minutes. Thereafter, 1.25 μ1 dimethyl sulfoxide (DMSO) solution of each of the N-(3-pyridylalkyl)sulfonamide derivatives obtained in Examples 1, 3 and 7 was put in the cuvette and incubated for 3 minutes, followed by the addition of 20 U/ml solution of thrombin to cause platelet aggregation. A portion of the supernatant after aggregation reaction was mixed with diethyl ether/methanol/0.2M citric acid (30:4:1 ), and the thus formed thromboxane A2 was extracted and its quantity was analyzed by RIA using a kit of Amersham.

[5] = system: platelet aggregation caused by U-46619; experiment: Test Example 1: Platelet aggregation inhibiting activity (human PRP, U-46619); assay type: cell-based; details: for IC50: Platelet, 320 nM U-46619, 37° C., read-out: Inhibitory effect against platelet aggregation caused by U-46619 (IC50); for platelet aggregation inhibiting activity (in words): U-46619
Procedure: as §2
as §1, with “200 µl of” for “200 μof”, “23.75 µl” for “23.75 μl”, “1.25 μ1” for “1.25 μl”, “Examples 1, 3, 4, 6” for “Examples 35, 36, 37”, “and 8” for “and 42”, “stable PGG2/ H2” for “stable PGG2 /H2”
In this instance, the term "IC50 "as used herein means concentration of the N-(3-pyridylalkyl)sulfonamide derivative of the present invention required to inhibit 50% of the platelet agglutination when platelet aggregation without introducing the inventive derivative was defined as 100%.

thromboxane synthetase [6] = biological target: T1, thromboxane synthetase; experiment: Test Example 7: Thromboxane synthetase inhibiting activity (human PRP, thrombin, RIA); assay type: cell-based; details: for IC50: 20 U/ml thrombin, RIA, read-out: Inhibition of thromboxane A2 synthesis (IC50); for thromboxane synthetase inhibiting activity (in words): thrombin
Procedure: A blood sample was collected from human fore arm using a syringe containing 3.8% sodium citrate solution (1/10 volume of the blood to be collected) and centrifuged to obtain platelet rich plasma (PRP; 3×10^5 platelets/μl ).
as §3, with “200 μl” for “200 μ1”, “23.75 μl” for “23.75 µl”, “Examples 36, 37, 38” for “Examples 1, 3”, “and 40” for “and 7”, “acid (30:4:1),” for “acid (30:4:1 ),”

## C/C(=C\c1ccc(CC(NS(=O)(=O)c2ccc(Cl)cc2)c2cccnc2)cc1)C(=O)O (stereo not shown) [Example 35]
[1]
  IC50: 48 µM
  platelet aggregation inhibiting activity (in words): markedly high platelet aggregation inhibiting activity

## O=C(O)COc1ccc(CC(CCNS(=O)(=O)c2ccc(Cl)cc2)c2cccnc2)cc1 (stereo not shown) [Example 33]
[2]
  IC50: 17 µM
Thromboxane synthetase [3]
  IC50: 0.03 µM

## O=C(O)COc1ccc(C(CCNS(=O)(=O)c2ccc(Cl)cc2)Cc2cccnc2)cc1 (stereo not shown) [Example 8, 4-[1-(4-chlorobenzenesulfonamido)-4-(3-pyridyl)-3-butyl]phenyloxyacetic acid]
Thromboxane synthetase [4]
  IC50: 4.3 µM

## O=C(O)COc1ccc(CCC(NS(=O)(=O)c2ccc(Cl)cc2)c2cccnc2)cc1 (stereo not shown) [Example 31, 4-[3-(4-chlorobenzenesulfonamido)-3-(3-pyridyl)propyl]phenoxyacetic acid]
[2]
  IC50: 15 µM
Thromboxane synthetase [3]
  IC50: 0.94 µM

## O=C(O)c1ccc(CCC(NS(=O)(=O)c2ccc(Cl)cc2)c2cccnc2)cc1 (stereo not shown) [Example 29, 4-[3-(4-chlorobenzenesulfonamido)-3-(3-pyridyl)propyl]benzoic acid]
[2]
  IC50: 2 µM
Thromboxane synthetase [3]
  IC50: 1.5 µM

## O=C(O)COc1ccc(C(CCNS(=O)(=O)c2ccc(Cl)cc2)c2cccnc2)cc1 (stereo not shown) [Example 7, 4-[3-(4-chlorobenzenesulfonamido)-1-(3-pyridyl)propyl]phenyloxyacetic acid]
[5]
  IC50: 30 µM
  platelet aggregation inhibiting activity (in words): markedly high platelet aggregation inhibiting activity
Thromboxane synthetase [4]
  thromboxane synthetase inhibiting activity (in words): excellent thromboxane synthetase inhibiting activity

## CCOC(=O)Oc1ccc(CC(CNS(=O)(=O)c2ccc(Cl)cc2)c2cccnc2)cc1 (stereo not shown) [Example 27]
[2]
  IC50: 52 µM
Thromboxane synthetase [3]
  IC50: 28 µM

## O=C(O)c1ccc(CC(NS(=O)(=O)c2ccc(Cl)cc2)c2cccnc2)cc1 (stereo not shown) [Example 19]
[2]
  IC50: 4.2 µM
Thromboxane synthetase [3]
  IC50: 1 µM

## Cc1ccc(S(=O)(=O)NC(Cc2ccc(OCC(=O)O)cc2)c2cccnc2)cc1 (stereo not shown) [Example 11]
[2]
  IC50: 1.9 µM
Thromboxane synthetase [3]
  IC50: 21 µM

## O=C(O)COc1ccc(CC(NS(=O)(=O)c2ccccc2)c2cccnc2)cc1 (stereo not shown) [Example 13]
[2]
  IC50: 0.84 µM
Thromboxane synthetase [3]
  IC50: 8.9 µM

## C/C(=C\c1ccc(C(CCNS(=O)(=O)c2ccc(Cl)cc2)c2cccnc2)n1C)C(=O)O (stereo not shown) [Example 42]
[1]
  IC50: 43 µM
  platelet aggregation inhibiting activity (in words): markedly high platelet aggregation inhibiting activity

## O=C(O)COc1ccc(C(CNS(=O)(=O)c2ccc(Cl)cc2)Cc2cccnc2)cc1 (stereo not shown) [Example 23, 4-[{1-(4-chlorobenzenesulfonamido)-3-(3-pyridyl)}propan-2-yl]phenoxyaceticacid]
[2]
  IC50: 0.36 µM
Thromboxane synthetase [3]
  IC50: 5.1 µM

## O=C(O)/C=C/c1ccc(CC(NS(=O)(=O)c2ccc(Cl)cc2)c2cccnc2)cc1 (stereo not shown) [Example 15, 4-[2-(4-chlorobenzenesulfonamido]-2-(3-pyridyl)ethyl]cinnamic acid]
[2]
  IC50: 1.1 µM
Thromboxane synthetase [3]
  IC50: 36 µM

## O=C(O)Cc1ccc(CC(NS(=O)(=O)c2ccc(Cl)cc2)c2cccnc2)cc1 (stereo not shown) [Example 21, 4-[2-(4-chlorobenzenesulfonamido)-2-(3-pyridyl)ethyl]phenylacetic acid]
[2]
  IC50: 0.68 µM
Thromboxane synthetase [3]
  IC50: 2.2 µM

## CCOC(=O)COc1ccc(C(NS(=O)(=O)c2ccc(Cl)cc2)c2cccnc2)cc1 (stereo not shown) [Example 1, ethyl 4-[4-chlorobenzenesulfonamide-(3-pyridyl)methyl]phenyloxyacetate]
[5]
  IC50: 96 µM
  platelet aggregation inhibiting activity (in words): markedly high platelet aggregation inhibiting activity
Thromboxane synthetase [4]
  IC50: 0.037 µM
  thromboxane synthetase inhibiting activity (in words): excellent thromboxane synthetase inhibiting activity

## O=C(O)CCc1ccc(CC(NS(=O)(=O)c2ccc(Cl)cc2)c2cccnc2)cc1 (stereo not shown) [Example 17, 3-{4-[2-(4-chlorobenzenesulfonamido)-2(3-pyridyl)ethyl]phenyl}propionic acid]
[2]
  IC50: 1.8 µM
Thromboxane synthetase [3]
  IC50: 30 µM

## CCOC(=O)/C(C)=C/c1ccc(C(CNS(=O)(=O)c2ccc(Cl)cc2)c2cccnc2)cc1 (stereo not drawn) [Example 40, ethyl 4-[2-(4-chlorobenzenesulfonamido)-1-(3-pyridyl)ethyl]-α-methylcinnamate]
Thromboxane synthetase [6]
  IC50: 1.5 µM
  thromboxane synthetase inhibiting activity (in words): excellent thromboxane synthetase inhibiting activity

## O=C(O)COc1ccc(CC(CNS(=O)(=O)c2ccc(Cl)cc2)c2cccnc2)cc1 (stereo not shown) [Example 26]
[2]
  IC50: 60 µM
Thromboxane synthetase [3]
  IC50: 2.4 µM

## CCOC(=O)COc1ccc(C(CCNS(=O)(=O)c2ccc(Cl)cc2)Cc2cccnc2)cc1 (stereo not shown) [Example 9]
[5]
  IC50: 5.1 µM
  platelet aggregation inhibiting activity (in words): markedly high platelet aggregation inhibiting activity

## CCOC(=O)Oc1ccc(C(CNS(=O)(=O)c2ccc(Cl)cc2)Cc2cccnc2)cc1 (stereo not shown) [Example 24]
[2]
  IC50: 40 µM
Thromboxane synthetase [3]
  IC50: 2.2 µM

## C/C(=C\c1ccc(C(CNS(=O)(=O)c2ccc(Cl)cc2)Cc2cccnc2)cc1)C(=O)O (stereo not drawn) [Example 36, 4-[1-(4-chlorobenzenesulfonamido)-3-(3-pyridyl)-2-propyl]-α-methylcinnamic acid]
Thromboxane synthetase [6]
  IC50: 8.3 µM
  thromboxane synthetase inhibiting activity (in words): excellent thromboxane synthetase inhibiting activity
[1]
  IC50: 71 µM
  platelet aggregation inhibiting activity (in words): markedly high platelet aggregation inhibiting activity
